Results from ChEMBL document CHEMBL1275247, “Pharmacokinetics and safety of CXA-101, a new antipseudomonal cephalosporin, in healthy adult male and female subjects receiving single- and multiple-dose intravenous infusions” (Antimicrob Agents Chemother, 2010).

Experiments:
[1] = Cmax in healthy human at 1000 mg, iv administered as single dose as 1 hr iv infusion; assay type: ADME, organism-based; design: dose 1000 mg, route intravenous; settings: in vivo
[2] = Half-life in plasma of healthy human 500 mg, iv administered as 1 hr infusion every 8 hrs for 10 days measured on day 10; assay type: ADME, organism-based
[3] = Clearance in healthy human at 500 mg, iv administered as single dose as 1 hr iv infusion; assay type: ADME, organism-based; settings: in vivo
[4] = AUC (0 to infinity) in healthy human at 1500 mg, iv administered as 1 hr infusion every 12 hrs for 10 days measured on day 10; assay type: ADME, organism-based; design: dose 1500 mg, route intravenous, time infinity; settings: plasma
[5] = Renal clearance in healthy human at 500 mg, iv administered as 1 hr infusion every 8 hrs for 10 days measured on day 1; assay type: ADME, organism-based, Kidney; settings: in vivo, read-out: CL_renal
[6] = Volume of distribution at steady state in healthy human at 1500 mg, iv administered as 1 hr infusion every 12 hrs for 10 days measured on day 10; assay type: ADME, organism-based; settings: in vivo
[7] = Volume of distribution at steady state in healthy human at 500 mg, iv administered as 1 hr infusion every 8 hrs for 10 days measured on day 1; assay type: ADME, organism-based; settings: in vivo
[8] = AUC (0 to infinity) in healthy human at 2000 mg, iv administered as single dose as 1 hr iv infusion; assay type: ADME, organism-based; design: dose 2000 mg, route intravenous, time infinity; settings: plasma
[9] = Mean residence time in healthy human at 1000 mg, iv administered as 1 hr infusion every 8 hrs for 10 days measured on day 10; assay type: ADME, organism-based; settings: in vivo
[10] = Renal clearance in healthy human at 1000 mg, iv administered as 1 hr infusion every 8 hrs for 10 days measured on day 10; assay type: ADME, organism-based, Kidney; settings: in vivo, read-out: CL_renal
[11] = Half-life in plasma of healthy human 2000 mg administered as single ascending dose, iv for 1 hr infusion; assay type: ADME, organism-based
[12] = AUC (0 to infinity) in healthy human at 1500 mg, iv administered as 1 hr infusion every 12 hrs for 10 days measured on day 1; assay type: ADME, organism-based; design: dose 1500 mg, route intravenous, time infinity; settings: plasma
[13] = Tmax in healthy human at 250 mg, iv administered as single dose as 1 hr iv infusion; assay type: ADME, organism-based; settings: in vivo
[14] = Clearance in healthy human at 500 mg, iv administered as 1 hr infusion every 8 hrs for 10 days measured on day 1; assay type: ADME, organism-based; settings: in vivo
[15] = Volume of distribution at steady state in healthy human at 1500 mg, iv administered as single dose as 1 hr iv infusion; assay type: ADME, organism-based; settings: in vivo
[16] = Volume of distribution at steady state in healthy human at 1500 mg, iv administered as 1 hr infusion every 12 hrs for 10 days measured on day 1; assay type: ADME, organism-based; settings: in vivo
[17] = Renal clearance in healthy human at 1500 mg, iv administered as 1 hr infusion every 12 hrs for 10 days measured on day 10; assay type: ADME, organism-based, Kidney; settings: in vivo, read-out: CL_renal
[18] = Mean residence time in healthy human at 2000 mg, iv administered as single dose as 1 hr iv infusion; assay type: ADME, organism-based; settings: in vivo
[19] = Volume of distribution at steady state in healthy human at 500 mg, iv administered as single dose as 1 hr iv infusion; assay type: ADME, organism-based; settings: in vivo
[20] = Volume of distribution at steady state in healthy human at 250 mg, iv administered as single dose as 1 hr iv infusion; assay type: ADME, organism-based; settings: in vivo
[21] = Half-life in plasma of healthy human 1500 mg administered as single ascending dose, iv for 1 hr infusion; assay type: ADME, organism-based
[22] = AUC (0 to infinity) in healthy human at 250 mg, iv administered as single dose as 1 hr iv infusion; assay type: ADME, organism-based; design: dose 250 mg, route intravenous, time infinity; settings: plasma
[23] = Half-life in plasma of healthy human 250 mg administered as single ascending dose, iv for 1 hr infusion; assay type: ADME, organism-based
[24] = AUC (0 to infinity) in healthy human at 500 mg, iv administered as 1 hr infusion every 8 hrs for 10 days measured on day 1; assay type: ADME, organism-based; design: dose 500 mg, route intravenous, time infinity; settings: plasma
[25] = Clearance in healthy human at 250 mg, iv administered as single dose as 1 hr iv infusion; assay type: ADME, organism-based; settings: in vivo
Homo sapiens [26] = test: Toxicity in healthy human assessed as occurrence of diarrhea at 500 mg, iv administered as 1 hr infusion every 8 hrs for 10 days; assay type: organism-based; settings: in vivo
Homo sapiens [27] = test: Toxicity in healthy human assessed as occurrence of somnolence at 1000 mg, iv administered as single dose as 1 hr iv infusion; assay type: organism-based; settings: in vivo
[28] = Drug recovery in urine of healthy human at 2000 mg, iv administered as single dose as 1 hr iv infusion after 24 hrs; assay type: ADME, organism-based; settings: read-out: Activity
Homo sapiens [29] = test: Toxicity in healthy human assessed as occurrence of flushing at 1000 mg, iv administered as 1 hr infusion every 8 hrs for 10 days; assay type: organism-based; settings: in vivo
[30] = Renal clearance in healthy human at 250 mg, iv administered as single dose as 1 hr iv infusion; assay type: ADME, organism-based, Kidney; settings: in vivo, read-out: CL_renal
[31] = Cmax in healthy human at 250 mg, iv administered as single dose as 1 hr iv infusion; assay type: ADME, organism-based; design: dose 250 mg, route intravenous; settings: in vivo
[32] = Drug recovery in urine of healthy human at 500 mg, iv administered as single dose as 1 hr iv infusion after 24 hrs; assay type: ADME, organism-based; settings: read-out: Activity
[33] = Mean residence time in healthy human at 1000 mg, iv administered as 1 hr infusion every 8 hrs for 10 days measured on day 1; assay type: ADME, organism-based; settings: in vivo
[34] = Mean residence time in healthy human at 1500 mg, iv administered as 1 hr infusion every 12 hrs for 10 days measured on day 1; assay type: ADME, organism-based; settings: in vivo
[35] = Cmax in healthy human at 1500 mg, iv administered as 1 hr infusion every 12 hrs for 10 days measured on day 1; assay type: ADME, organism-based; design: dose 1500 mg, route intravenous; settings: in vivo
[36] = AUC (0 to infinity) in healthy human at 500 mg, iv administered as single dose as 1 hr iv infusion; assay type: ADME, organism-based; design: dose 500 mg, time infinity, route intravenous; settings: plasma
[37] = Drug recovery in urine of healthy human at 250 mg, iv administered as single dose as 1 hr iv infusion after 24 hrs; assay type: ADME, organism-based; settings: read-out: Activity
[38] = Drug recovery in urine of healthy human at 1000 mg, iv administered as 1 hr infusion every 8 hrs for 10 days measured on day 10; assay type: ADME, organism-based; settings: read-out: Activity
[39] = Renal clearance in healthy human at 1000 mg, iv administered as single dose as 1 hr iv infusion; assay type: ADME, organism-based, Kidney; settings: in vivo, read-out: CL_renal
[40] = Volume of distribution at steady state in healthy human at 1000 mg, iv administered as 1 hr infusion every 8 hrs for 10 days measured on day 1; assay type: ADME, organism-based; settings: in vivo
Homo sapiens [41] = test: Toxicity in healthy human assessed as occurrence of headache at 1500 mg, iv administered as single dose as 1 hr iv infusion; assay type: organism-based; settings: in vivo
[42] = AUC (0 to infinity) in healthy human at 1000 mg, iv administered as 1 hr infusion every 8 hrs for 10 days measured on day 1; assay type: ADME, organism-based; design: dose 1000 mg, time infinity, route intravenous; settings: plasma
[43] = Mean residence time in healthy human at 1500 mg, iv administered as 1 hr infusion every 12 hrs for 10 days measured on day 10; assay type: ADME, organism-based; settings: in vivo
Homo sapiens [44] = test: Toxicity in healthy human assessed as occurrence of paraesthesia at 500 mg, iv administered as 1 hr infusion every 8 hrs for 10 days; assay type: organism-based; settings: in vivo
[45] = Half-life in plasma of healthy human 1500 mg, iv administered as 1 hr infusion every 12 hrs for 10 days measured on day 1; assay type: ADME, organism-based

- Cmax [1]: 58.4 µg/mL
- half-life [2]: 2.2 h
- clearance [3]: 99.1 mL/min
- AUC(0-inf) [4]: 207 µg·h/mL
- CL renal [5]: 78.4 mL/min
- Vd [6]: 18.1 L
- Vd [7]: 13.8 L
- AUC(0-inf) [8]: 344 µg·h/mL
- MRT [9]: 2.45 h
- CL renal [10]: 111 mL/min
- half-life [11]: 2.45 h
- AUC(0-inf) [12]: 219 µg·h/mL
- Tmax [13]: 1.03 h
- clearance [14]: 94.6 mL/min
- Vd [15]: 17.6 L
- Vd [16]: 18.1 L
- CL renal [17]: 127 mL/min
- MRT [18]: 2.54 h
- Vd [19]: 14.8 L
- Vd [20]: 13.1 L
- half-life [21]: 2.62 h
- AUC(0-inf) [22]: 40.1 µg·h/mL
- half-life [23]: 1.86 h
- AUC(0-inf) [24]: 88.1 µg·h/mL
- clearance [25]: 104 mL/min
- dose excreted at 24 h [28]: 97.7%
- CL renal at 1 h [30]: 101 mL/min
- Cmax [31]: 16.5 µg/mL
- dose excreted at 24 h [32]: 91.2%
- MRT [33]: 2.64 h
- MRT [34]: 2.64 h
- Cmax [35]: 85.4 µg/mL
- AUC(0-inf) [36]: 84.1 µg·h/mL
- dose excreted at 24 h [37]: 97.1%
- dose excreted at 10 day [38]: 94.1%
- CL renal at 1 h [39]: 93.4 mL/min
- Vd [40]: 17.8 L
- AUC(0-inf) [42]: 149 µg·h/mL
- MRT [43]: 2.5 h
- half-life [45]: 2.72 h
Structure (SMILES): Cn1c(N)c(NC(=O)NCCN)c[n+]1CC1=C(C(=O)O)N2C(=O)[C@@H](NC(=O)/C(=N\OC(C)(C)C(=O)[O-])c3nsc(N)n3)[C@H]2SC1 [CEFTOLOZANE]
- Activity (Homo sapiens [26]): Non-toxic
- Activity (Homo sapiens [27]): Non-toxic
- Activity (Homo sapiens [29]): Non-toxic
- Activity (Homo sapiens [41]): Non-toxic
- Activity (Homo sapiens [44]): Non-toxic
